# Marks after values point to notes of the source that are not given here.
# Key:
# [1] = system: patients; settings: randomized phase III, cited from earlier work
# [2] = In vivo pharmacokinetic studies in mice (plasma and liver, LC/MS-MS); settings: for AUC fold change vs. WT: 95% confidence interval; for AUC(0-t) / Cmax: female, FVB, mouse, plasma, po; for liver levels, wild-type vs Oatp1a/1b^(−/−) mice / liver concentrations in OATP1B1^(tg) or OATP1B3^(tg) mice: single oral dose, letrozole 10 mg/kg or exemestane 20 mg/kg; for liver concentrations in OATP1B1^(tg) or OATP1B3^(tg) mice: relative to Oatp1a/1b^(−/−) and wild-type
# Procedure: The analysis was conducted using a Vanquish UHPLC aligned with a Quantiva triple-stage quadrupole mass spectrometer (Thermo Fisher Scientific). An ACQUITY UPLC BEH C18 Column (130 Å, 1.7 μm, 2.1 mm × 50 mm, Waters Co.) protected by ACQUITY UPLC BEH Shield RP18 VanGuard Pre-column (130 Å, 1.7 μm, 2.1 mm × 5 mm, Waters Co.) was used for analyte separation. The injection volume of the sample was 10 μL. The temperature of the column was kept at 40°C, whereas the autosampler rack was kept at 4°C. The mobile phase consisted of solvent A, which was a solution of 0.1% acetic acid in LC/MS-grade water, and solvent B, which was a solution of 0.1% formic acid in acetonitrile. The total run time was 4.5 minutes. The following were the gradient conditions: 0.3 mL/minutes was the flow rate for the following intervals: 0 to 0.5 minutes, 30% B; 0.5 to 3.0 minutes, 30% to 95% B; 3.0 to 4.0 minutes, 95% B; and 4.001 to 4.5 minutes, 95% to 30% B. The vaporizer was adjusted to 360°C, and the ion transfer tube temperature was 340°C. The mass spectrometry assay was configured with a positive voltage of 3600 V delivered to the ESI capillary. The collision gas utilized was argon, with a pressure of 1.5 mTorr. The mass spectrometer was set up with the following optimized parameters: 1 arbitrary unit (Arb) for sweep gas, 5 Arb for auxiliary gas, and 25 Arb for sheath gas. […] The accuracy, expressed as a percent bias varied from −7.80% to 5.10%, whereas the inter-assay and intra-assay precisions ranged from 2.19% to 7.09% according to the results of assay validation tests. The lower limit of quantification was 0.4 ng/mL.
# Letrozole was quantified using an LC/MS-MS method described previously ([14]). A Vanquish UHPLC and Quantiva triple-stage quadrupole mass spectrometer (Thermo Fisher Scientific) were used in the analysis. Analytes were separated chromatographically using a C18 AQUASIL guard cartridge (2.1 mm × 10 mm, 3 μm; Thermo Fisher Scientific) and an Accucore aQ column (50 mm × 2.1 mm, 2.6 μm). The temperature of the column was set at 40°C, whereas the autosampler was kept at 4°C. The mobile phase consisted of solvent A, which was a solution of 0.1% acetic acid in LC/MS-grade water, and solvent B, which was a solution of 0.1% formic acid in acetonitrile. A gradient elution method was employed for 5.0 minutes, with a flow rate of 0.4 mL/minutes. […] Injections were performed using 3 μL of the extracted samples. The mass spectrometer parameters were optimized and configured as follows: 25 Arb for sheath gas, 5 Arb for auxiliary gas, and 1 Arb for sweep gas. The temperature of the ion transfer tube and vaporizer was adjusted to 340°C and 360°C, respectively. Argon was used as the collision gas at a pressure of 1.5 mTorr. […] The lower limit of quantification was 5 ng/mL.
# Female wild-type, Oatp1a/1b cluster-knockout mice [Oatp1a/1b^(−/−) mice] and Oatp1a/1b^(−/−) mice with transgenic hepatic expression of OATP1B1 [OATP1B1^(tg) mice] or OATP1B3 [OATP1B3^(tg) mice] were all on an FVB background (RRID: IMSR_T000141), and experimental groups were age- and weight-matched for each experiment. Female mice with a deficiency of all Cyp3a isoforms [Cyp3a^(−/−)] were similarly matched with FVB wild-type mice. All mice were bred in-house. Littermates of the same sex and genotype were housed in groups of maximally five animals in a temperature- and light-controlled environment (12-hour light/dark cycles) in cages lined with absorbent bedding. Mice were given free access to standard food and water.
# For in vivo pharmacokinetic studies, mice were randomized into experimental groups of equal size.
# [3] = system: Oatp1b2; experiment: CDCA-24G plasma biomarker of hepatic Oatp1b2 function in mice; type: in vivo; settings: single oral letrozole 10 mg/kg, 2 hours
# Procedure: A, The levels of CDCA-24G biomarker in plasma were measured via LC/MS-MS in wild-type and Cyp3a^(−/−) mice treated with a single oral administration of letrozole (10 mg/kg) or vehicle. […] Data are shown as mean ± SD. Two-sided, unpaired Student t tests were used to analyze the data and no multiple comparison adjustment was applied. **, P < 0.01 and ****, P < 0.0001 compared with the wild-type group; n = 9 to 10 per group.
# [4] = system: mice; experiment: Photobeam activity open field system (physical activity); type: in vivo
# Procedure: An open-field photobeam activity system was used to monitor the motor activity of mice over a period of 12 hours after administration of letrozole ([27], [28]). Spontaneous physical/locomotor activity was assessed using an activity monitoring system consisting of a two-dimensional (X and Y axes) square frame that emits a grid of infrared beams (IR Actimeter and Actitrack software, Panlab, Harvard Apparatus). Animals were placed in a transparent enclosure inside the frame, and movement within the enclosure (general locomotor activity) was recorded as interruptions in the beams. During acute studies, mice were dosed with letrozole (0.5 mg/kg) orally at 5:00 pm and were tested individually for 12 hours during the active/dark phase of the light cycle (6:00 pm–6:00 am). Physical activity of the mice was similarly monitored at baseline and at the end of 15 days of the chronic treatment.
# [5] = system: mice; experiment: Von Frey hair test (mechanical sensitivity); type: in vivo
# Procedure: Von Frey filaments were used as a mechanical sensitivity measurement following administration of letrozole in both chronic and acute treatments, using a strategy developed previously ([24]). After ensuring that the animal is acquainted with the environment, joint pain was directly evaluated by a hind limb withdrawal response to mechanical stimulation applied by the filaments. […] After a single dose, mechanical sensitivity was tested with the Von Frey filaments at 0, 1, 3, 6, and 24 hours after drug administration ([25], [26]). During the chronic treatment of letrozole (0.1 mg/kg/day for 15 days), mechanical sensitivity was measured at baseline, at the end of week 1, and the end of week 2. Analysts were blinded to the composition of the treatment groups.
# [6] = system: mice; experiment: Histopathology of knee joints after chronic letrozole; type: in vivo; settings: mice receiving multiple doses of letrozole (0.1 mg/kg/day, 15 days)
# Procedure: At the end of the chronic letrozole treatment, hind limbs of three randomly selected mice per group were collected, peeled for skin, and preserved in 10% neutral buffered formaline at room temperature for at least 48 hours until tissue processing. Tissues from the hind limbs were routinely processed for histopathology on a Leica Peloris 3 Tissue Processor (Leica Biosystems), embedded in paraffin, sectioned at an approximate thickness of 4 to 5 μm, and batch stained with hematoxylin and eosin on a Leica ST5020 autostainer using a routine and quality-controlled protocol. Slides were evaluated and representative photomicrographs were taken by a board-certified veterinary pathologist using a Nikon Eclipse Ci-L Upright Microscope (Nikon Instruments, Inc.) with attached 18 megapixel Olympus SC180 microscope-mounted digital camera and cellSens imaging software (Olympus Life Science).
# [7] = design: method as in earlier work; settings: patients receiving continuous dosing regimens, prescribing information; cited from earlier work
# [8] = OATP1B1^(tg) mice, chronic letrozole 0.1 mg/kg/day for 15 days, 12 hours
# [9] = OATP1B1^(tg) mice, single oral letrozole 0.5 mg/kg, 12 hours
# [10] = OATP1B3^(tg) mice, chronic letrozole 0.1 mg/kg/day for 15 days, 12 hours
# [11] = OATP1B3^(tg) mice, single oral letrozole 0.5 mg/kg, 12 hours
# [12] = Oatp1a/1b^(−/−) mice, chronic letrozole 0.1 mg/kg/day for 15 days, 12 hours
# [13] = Oatp1a/1b^(−/−) mice, single oral letrozole 0.5 mg/kg, 12 hours
# [14] = wild-type mice, chronic letrozole 0.1 mg/kg/day for 15 days, 12 hours
# [15] = wild-type mice, letrozole 0.5 mg/kg, 12 h, Table S4
# [16] = wild-type mice, single oral letrozole 0.5 mg/kg, 12 hours
# [17] = wild-type mice, single oral letrozole 0.5 mg/kg, 12 hours, listed as letrozole
# [18] = 2.5 mg daily for 5 years vs intermittent regimen
smiles,measurement,setting,value
C=C1C[C@@H]2[C@H](CC[C@]3(C)C(=O)CC[C@@H]23)[C@@]2(C)C=CC(=O)C=C12 [Exemestane],"suppression of estrogen levels and reduction of breast cancer tissue proliferation, intermittent vs standard daily dosing",[1]; 25 mg three times a week vs 25 mg daily,non-inferior
same,AUC fold change vs. WT,"[2]; OATP1B3^(tg) vs wild-type mice, exemestane 20 mg/kg oral",2.27 (1.49–3.44)
same,AUC fold change vs. WT,"[2]; Oatp1a/1b^(−/−) vs wild-type mice, exemestane 20 mg/kg oral",2.25 (1.60–3.18)
same,AUC(0-t),"[2]; 20 mg/kg, AUC0–6h, OATP1B3^(tg) female mice, exemestane 20 mg/kg oral, mean with SEM",294 ng·h/mL
same,AUC(0-t),"[2]; 20 mg/kg, AUC0–6h, Oatp1a/1b^(−/−) female mice, exemestane 20 mg/kg oral, mean with SEM",292 ng·h/mL
same,AUC(0-t),"[2]; 20 mg/kg, AUC0–6h, wild-type female mice, exemestane 20 mg/kg oral, mean with SEM",130 ng·h/mL
same,Cmax,"[2]; 20 mg/kg, OATP1B3^(tg) female mice, exemestane 20 mg/kg oral, mean with SEM",152 ng/mL
same,Cmax,"[2]; 20 mg/kg, Oatp1a/1b^(−/−) female mice, exemestane 20 mg/kg oral, mean with SEM",159 ng/mL
same,Cmax,"[2]; 20 mg/kg, wild-type female mice, exemestane 20 mg/kg oral, mean with SEM",94 ng/mL
same,"liver levels, wild-type vs Oatp1a/1b^(−/−) mice",[2],higher levels
same,liver concentrations in OATP1B1^(tg) or OATP1B3^(tg) mice,[2],partially restored
N#Cc1ccc(C(c2ccc(C#N)cc2)n2cncn2)cc1 [Letrozole],increase of CDCA-24G concentration in plasma vs vehicle control,[3]; Cyp3a^(−/−) mice,2.17 fold
same,increase of CDCA-24G concentration in plasma vs vehicle control,[3]; wild-type mice,1.62 fold
same,Activ. (global activity),[4]; [8],"28,800"
same,Dist. (total distance traveled),[4]; [8],380 m
same,Locom. (locomotion),[4]; [8],"25,909"
same,MF (%) (moving fast),[4]; [8],6.22%
same,MS (%) (moving slow),[4]; [8],11.58%
same,RT (%) (resting time % of total duration),[4]; [8],82.19%
same,Res.T. (resting time),[4]; [8],9.86 h
same,Stere. (stereotypes),[4]; [8],"2,892"
same,Activ. (global activity),[4]; [9],"31,678"
same,Dist. (total distance traveled),[4]; [9],377 m
same,Locom. (locomotion),[4]; [9],"28,964"
same,MF (%) (moving fast),[4]; [9],6.60%
same,MS (%) (moving slow),[4]; [9],11.08%
same,RT (%) (resting time % of total duration),[4]; [9],82.34%
same,Res.T. (resting time),[4]; [9],9.88 h
same,Stere. (stereotypes),[4]; [9],"2,713"
same,Activ. (global activity),[4]; [10],"29,841"
same,Dist. (total distance traveled),[4]; [10],373 m
same,Locom. (locomotion),[4]; [10],"27,036"
same,MF (%) (moving fast),[4]; [10],6.28%
same,MS (%) (moving slow),[4]; [10],12.01%
same,RT (%) (resting time % of total duration),[4]; [10],81.71%
same,Res.T. (resting time),[4]; [10],9.80 h
same,Stere. (stereotypes),[4]; [10],"2,804"
same,Activ. (global activity),[4]; [11],"27,095"
same,Dist. (total distance traveled),[4]; [11],340 m
same,Locom. (locomotion),[4]; [11],"24,448"
same,MF (%) (moving fast),[4]; [11],5.72%
same,MS (%) (moving slow),[4]; [11],11.06%
same,RT (%) (resting time % of total duration),[4]; [11],83.22%
same,Res.T. (resting time),[4]; [11],9.98 h
same,Stere. (stereotypes),[4]; [11],"2,647"
same,Activ. (global activity),[4]; [12],"26,637"
same,Dist. (total distance traveled),[4]; [12],316 m
same,Locom. (locomotion),[4]; [12],"24,065"
same,MF (%) (moving fast),[4]; [12],5.23%
same,MS (%) (moving slow),[4]; [12],11.23* %
same,RT (%) (resting time % of total duration),[4]; [12],83.55* %
same,Res.T. (resting time),[4]; [12],10.0* hours
same,Stere. (stereotypes),[4]; [12],"2,572"
same,Activ. (global activity),[4]; [13],"26,674"
same,Dist. (total distance traveled),[4]; [13],286 m
same,Locom. (locomotion),[4]; [13],"24,494"
same,MF (%) (moving fast),[4]; [13],4.64%
same,MS (%) (moving slow),[4]; [13],10.40%
same,RT (%) (resting time % of total duration),[4]; [13],84.96%
same,Res.T. (resting time),[4]; [13],10.2 h
same,Stere. (stereotypes),[4]; [13],"2,180*"
same,Activ. (global activity),[4]; [14],"30,580"
same,Dist. (total distance traveled),[4]; [14],383 m
same,Locom. (locomotion),[4]; [14],"27,528"
same,MF (%) (moving fast),[4]; [14],6.32%
same,MS (%) (moving slow),[4]; [14],13.30%
same,RT (%) (resting time % of total duration),[4]; [14],80.34%
same,Res.T. (resting time),[4]; [14],9.64 h
same,Stere. (stereotypes),[4]; [14],"3,052"
same,Dist. (total distance traveled),[4]; [15],512 m
same,Res.T. (resting time),[4]; [15],9.06 h
same,Activ. (global activity),[4]; [16],41163
same,Dist. (total distance traveled),[4]; [16],512 m
same,Locom. (locomotion),[4]; [16],37261
same,MF (%) (moving fast),[4]; [16],8.90%
same,MS (%) (moving slow),[4]; [16],15.53%
same,RT (%) (resting time % of total duration),[4]; [16],75.55%
same,Res.T. (resting time),[4]; [16],9.06 h
same,Stere. (stereotypes),[4]; [16],3902
same,Activ. (global activity),[4]; [17],"41,163"
same,Locom. (locomotion),[4]; [17],"37,261"
same,Stere. (stereotypes),[4]; [17],"3,902"
same,arthralgia-related changes in mechanical sensitivity,"[5]; Oatp1a/1b^(−/−) mice vs humanized transgenic and wild-type mice, letrozole 0.1 mg/kg daily for 15 days",worst arthralgia-related phenotypic changes in mechanical sensitivity
same,time of maximal mechanical sensitivity after drug administration,"[5]; wild-type mice, single dose of letrozole",6 h
same,mechanical allodynia (paw withdrawal threshold),"[5]; wild-type mice, single dose of letrozole 0.1-0.5 mg/kg","reversible, concentration- and time-dependent allodynia"
same,lesions in knee joints (histopathologic examination),[6],"synovial hyperplasia, synovitis, and patellar tendinitis"
same,accumulation in plasma,[7],does not substantially accumulate
same,"7-year disease-free survival, intermittent vs continuous",[1]; [18],comparable
same,"incidence of arthralgia, intermittent vs continuous dosing",[1]; [18],only slightly decreased
same,AUC fold change vs. WT,"[2]; Cyp3a^(−/−) vs wild-type mice, letrozole 10 mg/kg oral",1.59 (1.34–1.90)
same,AUC fold change vs. WT,"[2]; OATP1B1^(tg) vs wild-type mice, letrozole 10 mg/kg oral",1.29 (0.94–1.78)
same,AUC fold change vs. WT,"[2]; OATP1B3^(tg) vs wild-type mice, letrozole 10 mg/kg oral",1.27 (0.83–1.95)
same,AUC fold change vs. WT,"[2]; Oatp1a/1b^(−/−) vs wild-type mice, letrozole 10 mg/kg oral",1.3 (0.92–1.86)
same,AUC(0-t),"[2]; 10 mg/kg, AUC0–6h, OATP1B1^(tg) female mice, letrozole 10 mg/kg oral, mean with SEM",33000 ng·h/mL
same,AUC(0-t),"[2]; 10 mg/kg, AUC0–6h, OATP1B3^(tg) female mice, letrozole 10 mg/kg oral, mean with SEM",32400 ng·h/mL
same,AUC(0-t),"[2]; 10 mg/kg, AUC0–6h, Oatp1a/1b^(−/−) female mice, letrozole 10 mg/kg oral, mean with SEM",33300 ng·h/mL
same,AUC(0-t),"[2]; 10 mg/kg, AUC0–6h, wild-type female mice, letrozole 10 mg/kg oral, mean with SEM",25500 ng·h/mL
same,AUC(0-t),"[2]; 10 mg/kg, AUC0–24h, Cyp3a^(−/−) female mice, letrozole 10 mg/kg oral single dose, mean ± SEM",141000 ng·h/mL
same,AUC(0-t),"[2]; 10 mg/kg, AUC0–24h, wild-type female mice, letrozole 10 mg/kg oral single dose, mean ± SEM",88700 ng·h/mL
same,Cmax,"[2]; 10 mg/kg, Cyp3a^(−/−) female mice, letrozole 10 mg/kg oral single dose, mean ± SEM",6820 ng/mL
same,Cmax,"[2]; 10 mg/kg, OATP1B1^(tg) female mice, letrozole 10 mg/kg oral, mean with SEM",6550 ng/mL
same,Cmax,"[2]; 10 mg/kg, OATP1B3^(tg) female mice, letrozole 10 mg/kg oral, mean with SEM",6670 ng/mL
same,Cmax,"[2]; 10 mg/kg, Oatp1a/1b^(−/−) female mice, letrozole 10 mg/kg oral, mean with SEM",6750 ng/mL
same,Cmax,"[2]; 10 mg/kg, wild-type female mice, letrozole 10 mg/kg oral single dose, Table 1 study, mean ± SEM",5800 ng/mL
same,Cmax,"[2]; 10 mg/kg, wild-type female mice, letrozole 10 mg/kg oral, Table 2 study, mean with SEM",5180 ng/mL
same,"liver levels, wild-type vs Oatp1a/1b^(−/−) mice",[2],higher levels
same,liver concentrations in OATP1B1^(tg) or OATP1B3^(tg) mice,[2],partially restored
